These results are taken from PubChem BioAssay (NCI).

Common to all, as to experiment: inhibition of tumour cell growth, NCI panel, 48 h
For assay [1], the system named is HL-60(TB) leukemia.
Assay [2] deals with M14 melanoma.
For assay [3], the system named is SNB-75 CNS.
Assay [4] deals with HOP-92 NSCLC.
Assay [5] relates to DU-145 prostate.
Assay [6] has as its system IGROV1 ovarian.
Assay [7] relates to A549 NSCLC.
In assay [8] the test system is MDA-MB-435.
Assay [9] has as its system HCC-2998 colon.
Assay [10] concerns K-562 leukemia.

Where “and” joins values, the source holds several entries; their conditions need not be identical. Identical values can stand only once.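 How tested: cells in 96-well plates exposed to compound for 48 hours at five concentrations. GI50 marks 50% less growth. TGI is the concentration that stops growth completely.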 A value given as a limit tells only on which side of the number the result lay.

`O=C(O)C(Cl)Cl`: the GI50 in [1] was 7270 µM and > 7660 µM; in assay [2], over 10000 µM; in assay [3] it was 3500 µM and > 10000 µM; in assay [4], 3630 µM and > 10000 µM; in [5], 5720 µM and > 10000 µM; in assay [6], over 10000 µM. Besides, the GI50 in assay [7] was 7560 µM and > 10000 µM; in assay [8], 5460 µM and > 10000 µM; in assay [9], over 10000 µM; in assay [10] it was 6300 µM and > 10000 µM. For the same compound, the TGI in assay [1], in assay [2], in assay [3], in [4], in assay [5] and in assay [6] was over 10000 µM each time. The TGI in assay [7], in assay [8], in [9] and in [10] was over 10000 µM each time.

As for `COc1ccc(CN2C(=O)C(Cl)=C(Nc3cccc(C(F)(F)F)c3)C2=O)cc1`, the GI50 in [1] is 2.56 µM; in assay [3], 11.9 µM; in assay [4] it was 0.885 µM; in assay [5] it was 8.19 µM; in assay [7] it was 8.54 µM; in assay [8] it was 2.77 µM. In addition, the GI50 was 8.46 µM in assay [9] and 3.26 µM in [10]. In addition, the TGI is 19.5 µM in assay [1]; 27.3 µM in assay [3]; 27 µM in [4]; 21.6 µM in [5]; over 100 µM in [7]; 9.12 µM in assay [8]. Besides, the TGI in [9] was found to be 25.9 µM; in assay [10], 51.5 µM.

In the case of `O=C1OCC2=C1C(c1cccc(Br)c1)c1cc3c(cc1N2CCO)OCCO3` (centres undefined), the GI50 is 0.0452 µM in [1]; 0.0421 µM in assay [2]; 0.0397 µM in assay [3]; 0.107 µM in assay [5]; 0.117 µM in assay [6]; 0.131 µM in [7]. Further, the GI50 is 0.0927 µM in [9] and 0.055 µM in assay [10]. Further, the TGI in assay [1] was 0.362 µM; in assay [2], 0.453 µM; in assay [3], over 35.4 µM; in assay [5], 0.752 µM; in assay [6] it was over 43.8 µM; in [7] it was 5.97 µM. In addition, the TGI in assay [8] was 0.0241 µM; in assay [9], 1.71 µM; in assay [10], over 27.7 µM.

For the compound `CN(C)c1ccc(/C=N/NC(=S)Nc2ccccc2)cc1`, the TGI in assay [2], in [3], in assay [4], in assay [5], in assay [6] and in assay [7] was over 100 µM each time. Moreover, the TGI in [8] and in assay [10] was over 100 µM in each case.

As to `Cc1ccc(NC2=C3CCCCC3OC2=O)cc1` (centres undefined), the GI50 in assay [1] was 55.6 µM; in assay [2] it was over 100 µM; in [3], 71.9 µM; in assay [5], 88.8 µM; in assay [6], 54.3 µM; in [7], over 100 µM. Moreover, the values for the GI50 in assay [8], in assay [9] and in [10] were 55.2 µM, over 100 µM and 45.1 µM, respectively. Further, the TGI in assay [1], in assay [2], in assay [3], in [5], in assay [6] and in assay [7] was over 100 µM in each case. Also, the TGI in [8], in assay [9] and in assay [10] was over 100 µM each time.

With `C=C(C)C(=O)O[C@@H]1C[C@@]2(C)O[C@@H]2C[C@H](O)/C(C)=C/[C@H]2OC(=O)C(=C)[C@@H]21`, the TGI in [2], in assay [3], in [4], in [5], in [6] and in assay [7] was over 100 µM each time. Moreover, the TGI in assay [8], in [9] and in assay [10] was over 100 µM in each case.

Consider `C=C(C)C12OC1[C@@]1(C)C(=CC2=O)CCC(O)[C@@H]1C` (some centres undefined), for which the TGI was 4.26 µM in assay [1]; 18.1 µM in assay [2]; 38.8 µM in assay [3]; 93.9 µM in [4]; 33.1 µM in [5]; 13.3 µM in assay [6]. The figures for the TGI in assay [7], in assay [8] and in [9] were 20.3 µM, 21.1 µM and 17.6 µM, respectively.

On to `CC(=O)OCc1ccc2c(c1)C(O)NC(=O)O2` (centres undefined), for which the TGI in assay [1], in [2], in assay [3], in assay [4], in assay [5] and in [6] was over 100 µM throughout. For the same compound, the TGI in assay [7], in assay [8] and in [10] was over 100 µM throughout.

For `COc1ccc(C(c2cc(OC)c(OC)c(OC)c2)n2cncn2)cc1O` (centres undefined), the GI50 in assay [1] was 0.261 µM; in assay [2], 0.374 µM; in [4], 9.69 µM; in [5], 0.531 µM; in assay [6], 0.959 µM; in [7], 0.969 µM. Further, the GI50 is 1.35 µM in [9] and 0.427 µM in assay [10]. Moreover, the TGI in assay [1] was 0.687 µM; in [2], over 100 µM; in [4], over 100 µM; in assay [5], over 100 µM; in [6] it was over 100 µM; in assay [7], over 100 µM. For the same compound, the TGI in assay [9] and in assay [10] was over 100 µM each time.

For `COC1=CC(=O)C(C2(OC(C)C)OC(=O)C(Cl)=C2Cl)=CC1=O` (centres undefined), the TGI in [1] is 1.55 µM; in assay [2], over 100 µM; in assay [3], over 100 µM; in assay [4], over 100 µM; in assay [5], over 100 µM; in [7], over 100 µM. The TGI in assay [8] was over 100 µM; in assay [9], over 100 µM; in [10] it was 10.8 µM.

In the case of `Cn1cc(-c2cc3c(N4CCN(c5ncc([C@@](C)(N)c6ccc(F)cc6)cn5)CC4)ncnn3c2)cn1`, the GI50 in [1] is 3.8 µM; in [2], 4.42 µM; in assay [3], 1.39 µM; in [5] it was over 100 µM; in assay [6] it was 2.7 µM; in [7] it was 5.61 µM. Besides, the results for the GI50 in assay [8], in assay [9] and in assay [10] were 3.56 µM, 4.23 µM and 2.49 µM, respectively. The TGI in assay [1], in assay [2], in [3], in [5], in [6] and in assay [7] was over 100 µM in each case. In addition, the TGI in [8], in assay [9] and in assay [10] was over 100 µM in each case.

Turning to `CCOC(=O)n1cc(C2=C(c3ccc(OC)c(OC)c3)COC2=O)c2ccccc21`, the GI50 was 0.0279 µM in [1]; 0.0348 µM in [2]; 0.161 µM in assay [4]; 0.0794 µM in [5]; 0.0555 µM in assay [6]; 0.11 µM in assay [7]. The values for the GI50 in assay [9] and in [10] were 0.0891 µM and 0.0325 µM, respectively. The TGI in assay [1] is 0.0851 µM; in assay [2] it was over 100 µM; in assay [4], over 52.8 µM; in assay [5] it was over 100 µM; in [6], over 100 µM; in [7], over 100 µM. Moreover, the TGI is 16.5 µM in assay [9] and over 100 µM in assay [10].

With `CC#Cc1ccc(-c2ccccc2)s1`, the TGI in assay [1], in assay [2], in [3], in assay [4], in assay [5] and in assay [6] was over 100 µM throughout. Besides, the TGI in assay [7] and in [8] was over 100 µM each time.

As to `Cc1nnc2ccnn2c1C`, the GI50 in [1], in assay [3], in assay [4], in assay [5], in [6] and in assay [7] was over 100 µM each time. For the same compound, the GI50 in assay [8] was over 100 µM; in assay [9] it was 18.1 µM; in assay [10] it was over 100 µM. Also, the TGI in assay [1], in assay [3], in assay [4], in assay [5], in assay [6] and in assay [7] was over 100 µM each time. For the same compound, the TGI in assay [8] is over 100 µM; in assay [9] it was 33.1 µM; in assay [10] it was over 100 µM.

Take `CCC(C)SC1SCC2C(=O)N(C)C3(CC3C)C(=O)OCC(NC(=O)c3nc4ccccc4cc3O)C(=O)NC(C)C(=O)N(C)C1C(=O)N(C)C1(CC1C)C(=O)OCC(NC(=O)c1nc3ccccc3cc1O)C(=O)NC(C)C(=O)N2C` (centres undefined): the TGI was 0.00488 µM in [1]; 0.000846 µM and < 0.025 µM in assay [2]; 8.3e-05 µM in assay [3]; 0.000585 µM in assay [4]; 3.54 µM in [6]; 1.91 µM in assay [7]. Further, the TGI in [8] was 0.00019 µM; in assay [9], 0.000369 µM.
